According to ChEMBL document CHEMBL1201862, “PubChem BioAssay data set” (2004):
Active and inactive are the calls of the source.

How the values were obtained:
Vero [1] = test: cells; type: functional; conditions: Chlorocebus sabaeus
[2] = molecular target: Photoreceptor-specific nuclear receptor (Homo sapiens, UniProt Q9Y5X4); type: functional, cell-based;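 also: CHO-S cells with Gal4-NCOR and VP16-NR2E3 two-hybrid luciferase reporter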
[3] = blockers of HIV-1 envelope-mediated cell-cell fusion – cherry-pick, dose response (AID 652057); type: functional, cell-based
[4] = viability loss in CEM21 cells – cell-based, CellTiter-Glo luminescence, cherry-picked, cytotoxicity control for viral fusion inhibitor project, dose response (AID 652042); type: functional;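 also: potency for signal decrease meaning cytotoxicity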
[5] = blockers of HIV-1 ZM109 envelope-driven cell-cell fusion – HeLa effector, CEM target cells, luciferase, cherry-pick, dose response (AID 652058); type: functional, cell-based;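 also: luciferase signal from HIV-1 Env mediated cell-cell fusion of effector and target cells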
[6] = off-target signal loss in HeLa-CEM21 co-culture – HeLa F-luc CTL cells, cherry-picked, counter-screen for HIV-1 Env fusion inhibitor project, dose response (AID 652040); type: functional, cell-based;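 also: potency for signal decrease marking cytotoxic or nonspecific inhibition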
[7] = HIV-1 AD8 envelope cell-cell fusion blockers – cherry-pick, dose response (AID 652062); type: functional, cell-based;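 also: luciferase signal from cell-cell fusion driven by HIV-1 clade B AD8 Env; potency is for inhibitors of fusion seen as a drop in luminescence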
[8] = reduced cellular PGC1a acetyl-lysine signal – cell-based, cherry-picked samples, dose response (AID 720514); type: functional;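 also: potency may reflect raised or lowered acetylation signal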
[9] = microbe, parasite or virus in culture; type: functional; conditions: Mycobacterium tuberculosis
[10] = molecular target: T1, Mannose-6-phosphate isomerase (Homo sapiens, UniProt P34949); test: MPI inhibition at elevated mannose 6-phosphate – biochemical, fluorescence intensity, high mannose 6-phosphate, primary screen (AID 1220)
T1 sequence (P34949 whole entry): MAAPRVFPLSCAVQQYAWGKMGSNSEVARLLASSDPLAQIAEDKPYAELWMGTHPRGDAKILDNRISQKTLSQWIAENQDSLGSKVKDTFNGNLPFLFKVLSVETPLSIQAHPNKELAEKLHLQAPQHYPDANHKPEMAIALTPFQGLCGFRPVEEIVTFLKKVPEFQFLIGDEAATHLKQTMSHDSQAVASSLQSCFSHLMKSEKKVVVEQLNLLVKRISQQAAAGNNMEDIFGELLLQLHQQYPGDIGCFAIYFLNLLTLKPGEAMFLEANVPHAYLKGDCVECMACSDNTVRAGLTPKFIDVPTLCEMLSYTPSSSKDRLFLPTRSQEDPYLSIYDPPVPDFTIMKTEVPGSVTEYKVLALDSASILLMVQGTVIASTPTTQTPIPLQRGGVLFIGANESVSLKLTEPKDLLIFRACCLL

cells = type: functional
[11] = viability loss in HepG2 hepatoma cells – cell-based, ATP luminescence, cherry-pick, activator set 2, cytotoxicity control, dose response (AID 1053143); type: functional
[12] = general mammalian cell viability loss – inhibitor set, cherry-pick, set 2, cytotoxicity control for miR-122 modulator project, dose response (AID 720697); type: functional, cell-based
[13] = growth inhibition of yeast DHODH-expressing 3D7 parasites – SYBR Green, dry powder samples, dose response (AID 1159570); type: functional, cell-based;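 also: parasite growth measured after 72 hours of compound exposure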
[14] = toxicity to human HepG2 hepatoma cells – cell-based, plate reader, dry powder samples, cytotoxicity control, dose response (AID 1159569); type: functional;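 also: inhibitor potency with signal falling toward the positive control level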
[15] = Dd2 parasite growth inhibition in erythrocytes – SYBR Green, dry powder samples, set 9, dose response (AID 1159568); type: functional, cell-based
[16] = P. falciparum Dd2 growth inhibitors, dose response, SYBR Green, cherry-picked samples (AID 1159567); type: functional, cell-based
[17] = Dd2 malaria parasite growth inhibition potency – SYBR Green, dry powder samples, dose response (AID 1159566); type: functional, cell-based;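 also: potency for growth inhibition with lower SYBR green DNA signal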
[18] = growth inhibition of PfATP4-mutant resistant parasites – NITD609-resistant line, SYBR Green, dry powder, dose response (AID 1159571); type: functional, cell-based;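 also: parasites synchronized at ring stage by sorbitol before testing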
[19] = Trypanosoma cruzi growth suppression in host cells – NIH3T3 host cells, beta-gal luminescence, confirmation (AID 2044); type: functional, cell-based;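 also: intracellular parasites grown in NIH/3T3 mouse fibroblasts as host cells; luminescent beta-galactosidase reporter signal from transgenic T. cruzi replicating inside host cells; inhibitors lower the luminescence signal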
[20] = NIH3T3 cell viability loss – ATP luminescence, mouse fibroblasts, counter-screen, dose response (AID 2010); type: functional, cell-based;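 also: cells exposed to compound for about 90 hours before reading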
INS1 = test: INS-1E survival protection against cytokine death – cell-based, luminescence, retest, dose response (AID 449756); type: functional; conditions: Rattus norvegicus, INS1;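 also: cell death triggered by IL-1 beta plus TNF-alpha plus IFN-gamma mixture; protective hits raise ATP signal compared with cytokine alone wells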
[21] = molecular target: FAD-linked sulfhydryl oxidase ALR (Homo sapiens, UniProt P55789); test: ALR-catalysed DTT oxidation blockers – biochemical, H2O2 detection, luminescence, cherry-pick, dose response (AID 493248)
Sequence of FAD-linked sulfhydryl oxidase ALR (P55789 whole entry): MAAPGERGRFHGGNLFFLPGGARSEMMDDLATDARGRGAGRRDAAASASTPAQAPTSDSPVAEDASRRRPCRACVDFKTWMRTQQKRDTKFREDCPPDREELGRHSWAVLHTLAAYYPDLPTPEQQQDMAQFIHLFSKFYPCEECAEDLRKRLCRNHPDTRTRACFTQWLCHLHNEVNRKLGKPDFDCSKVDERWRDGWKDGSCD

Kallikrein-7 = Kallikrein-7 (Homo sapiens, UniProt P49862); test: Fluorescence Intensity-based biochemical primary high throughput dose response assay to identify activators of kallikrein-7 (K7) zymogen.
Sequence of Kallikrein-7 (P49862 whole entry): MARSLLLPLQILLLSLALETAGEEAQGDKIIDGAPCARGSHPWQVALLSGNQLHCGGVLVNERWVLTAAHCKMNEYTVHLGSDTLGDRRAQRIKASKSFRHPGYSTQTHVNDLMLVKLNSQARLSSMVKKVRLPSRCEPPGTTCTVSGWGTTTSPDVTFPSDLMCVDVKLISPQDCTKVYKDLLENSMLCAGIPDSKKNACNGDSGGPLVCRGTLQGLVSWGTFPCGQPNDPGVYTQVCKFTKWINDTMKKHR

Vero [22] = test: viability loss in Vero cells – cell-based, plate reader, cherry-pick samples, cytotoxicity control, dose response (AID 687020); type: functional; conditions: Chlorocebus sabaeus
[23] = molecular target: T2, Corticotropin-releasing factor receptor 2/Corticotropin-releasing factor-binding protein (Homo sapiens, UniProt P24387+Q13324); test: activators of CRF receptor 2 with binding protein – uHTS hits, confirmation (AID 602473); type: functional; conditions: read-out: EC50_Mean
T2 sequence (Q13324 whole entry): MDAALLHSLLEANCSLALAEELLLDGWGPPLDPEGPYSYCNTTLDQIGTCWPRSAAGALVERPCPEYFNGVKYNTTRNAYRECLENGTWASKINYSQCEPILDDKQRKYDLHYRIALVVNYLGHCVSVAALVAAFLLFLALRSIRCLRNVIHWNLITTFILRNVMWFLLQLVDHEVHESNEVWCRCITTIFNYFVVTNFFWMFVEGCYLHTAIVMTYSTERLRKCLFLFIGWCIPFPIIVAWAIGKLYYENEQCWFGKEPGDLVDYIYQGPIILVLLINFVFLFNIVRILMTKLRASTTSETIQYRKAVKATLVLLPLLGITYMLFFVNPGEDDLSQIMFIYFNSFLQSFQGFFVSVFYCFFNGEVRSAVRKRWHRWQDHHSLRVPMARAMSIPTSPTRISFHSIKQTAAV
T2 sequence (P24387 whole entry): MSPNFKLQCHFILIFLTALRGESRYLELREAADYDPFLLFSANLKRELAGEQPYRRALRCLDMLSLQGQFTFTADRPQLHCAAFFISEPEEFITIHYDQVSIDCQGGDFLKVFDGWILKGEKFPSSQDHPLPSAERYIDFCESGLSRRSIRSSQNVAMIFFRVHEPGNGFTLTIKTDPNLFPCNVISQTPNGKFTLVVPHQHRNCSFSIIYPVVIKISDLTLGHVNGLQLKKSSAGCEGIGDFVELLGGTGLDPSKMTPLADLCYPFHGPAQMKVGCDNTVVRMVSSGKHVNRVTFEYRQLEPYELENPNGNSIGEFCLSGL

[24] = viability loss in HEK293T cells – cell-based, cherry-picks, cytotoxicity control for HIV Vif inhibitor project, dose response (AID 652208); type: functional

Sequence of Photoreceptor-specific nuclear receptor (Q9Y5X4 whole entry, the tested form may be a part): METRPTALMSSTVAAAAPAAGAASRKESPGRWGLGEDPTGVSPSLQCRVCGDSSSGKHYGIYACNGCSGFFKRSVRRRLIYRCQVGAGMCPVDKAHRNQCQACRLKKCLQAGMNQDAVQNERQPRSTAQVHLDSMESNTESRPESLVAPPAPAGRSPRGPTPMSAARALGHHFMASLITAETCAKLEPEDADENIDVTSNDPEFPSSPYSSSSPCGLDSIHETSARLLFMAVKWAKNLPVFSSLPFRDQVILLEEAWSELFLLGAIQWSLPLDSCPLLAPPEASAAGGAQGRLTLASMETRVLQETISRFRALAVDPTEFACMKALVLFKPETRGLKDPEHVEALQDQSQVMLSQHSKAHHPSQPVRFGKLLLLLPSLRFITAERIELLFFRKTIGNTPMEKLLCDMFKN

CN(C)c1ncnc2c1ccn2C1OC(CO)C(O)C1O (stereo unspecified)
CC50 (Vero [1]): > 25 µM (active) | IC50 [2]: 1.45 µM (active) | AC50 [3]: 4.51 µM (active) | AC50 [4]: 1.39 µM (active) | AC50 [5]: 3.41 µM (active) | AC50 [6]: 1.9 µM (active) | AC50 [7]: 1.89 µM (active)

O=C1C=CCCN1S(=O)(=O)/C=C/c1ccccc1
AC50 [8]: 1.19 µM (active)

O=C(NC1CCCCCCC1O)c1ccccc1 (stereo unspecified)
AC50 [8]: 35.4 µM (active)

Cc1cc(=O)n2cccc(O)c2n1
CC50 [9]: > 40 µM (active) | IC50 [10]: 22.9 µM (active) | IC50 (cells): 9.19 µM (active)

O=C(c1ccc2c3n(nc2c1)-c1ccc(Cl)cc1CO3)N1CCCCC1
AC50 [11]: 26 µM (active)

CC(C)C(=O)Nc1ccc2c(c1)C(=O)N(C)[C@H]1CC[C@H](CC(=O)O)O[C@H]1CO2
AC50 [12]: 0.437 µM (active)

C[C@H](CO)N1C[C@H](C)[C@H](CN(C)C(=O)C2CCC2)Oc2cc(-c3ccc(C(=O)N(C)C)cc3)ccc2S1(=O)=O
AC50 [12]: 9.74 µM (active)

C[C@H](CO)N1C[C@H](C)[C@H](CN(C)C(=O)C2CCCCC2)Oc2ncc(C#Cc3cccc(F)c3)cc2C1=O
AC50 [13]: 0.848 µM (active) | AC50 [14]: 49.1 µM (active) | AC50 [15]: 0.269 µM (active) | AC50 [16]: 1.39 µM (active) | AC50 [17]: 0.408 µM (active) | AC50 [18]: 0.725 µM (active)

S=C(NCc1ccc(Cl)cc1)NC12CC3CC(CC(C3)C1)C2
EC50 [19]: 3.41 µM (active) | CC50 [9]: 18.8 µM (active) | EC50 [20]: > 60 µM (not active) | AC50 (INS1): 5.6 µM (active) | AC50 [3]: 4.88 µM (active) | AC50 [4]: 31.8 µM (active) | AC50 [5]: 6.05 µM (active) | AC50 [6]: 13.1 µM (active) | AC50 [7]: 8.99 µM (active)

O=C(Nc1ccccc1F)N1CCCCN2[C@H](CO)[C@H](c3ccc(/C=C/c4ccccc4)cc3)[C@@H]2C1
AC50 [15]: 12 µM (active)

O=C(Nc1ccc(C(=O)OC2CCCCC2)cc1)c1ccncc1
AC50 [4]: 64.2 µM (active) | AC50 [6]: > 70 µM (inactive) | AC50 [7]: 13.8 µM (active)

Cc1ccc(Nc2nc(-c3ccc(O)cc3O)cs2)nc1
AC50 [21]: 0.288 µM (active) | AC50 [11]: 26 µM (active)

CS(=O)(=O)Nc1ccc(-c2cnc3cccnn23)cc1
EC50 (Kallikrein-7): 24.1 µM (inactive)

Cc1ccc(CNC(=O)C2CCC(=O)N(CCc3ccccn3)C2)s1 (stereo unspecified)
AC50 (Vero [22]): 35.6 µM (active)

CCCCn1c(Cc2ccccc2)nnc1SCC(=O)Nc1cc(C)on1
IC50 [10]: > 50 µM (not active)

N#Cc1c(N2CCOCC2)nc(N)c2c(N)nc3c(c12)CC(CCl)O3 (stereo unspecified)
EC50 (Kallikrein-7): > 69.5 µM (inactive)

O=C1C=CCCN1C(=O)/C=C/c1cccc(Br)c1
AC50 [8]: 0.949 µM (active)

Cc1ccc(CNC(=O)c2cccc3c2C(=O)c2ccc(N4CCC(C)CC4)cc2S3(=O)=O)cc1
EC50 [23]: 5.51 µM (active) | AC50 [24]: 39.3 µM (active)

Cc1nn(-c2ccccc2)c2c1cc1c(=O)n(C)c(=O)nc-1n2-c1ccccc1F
EC50 (Kallikrein-7): 52.9 µM (inactive)

Cc1ccc(S(=O)(=O)c2nc(-c3ccccc3Cl)oc2N(C)C2CCN(C)CC2)cc1
AC50 [24]: 23.3 µM (active)

COCCNC(=O)c1cc2cc3ccc(OC)cc3nc2o1
AC50 (Vero [22]): 27.7 µM (active)
